Experimental data as given in ChEMBL document CHEMBL1201862, “PubChem BioAssay data set” (2004).
Where “and” joins values, the source holds several entries; their conditions need not be identical. Equal values may be shown once.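 Where inhibition never reached the appropriate level, the endpoint shown equals the highest concentration tested. Otherwise, values were interpolated linearly from a five-concentration, 48-hour dose response in 96-well plates. At the GI50, growth is halved.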 Calls of active or inactive are those of the source. Rule as the data show it: active = GI50 up to about 1.1 µM and inactive = higher.

Assays:
Assay in all cases: NCI-60 cell line screen, 48 h
[1] = system: 786-0
[2] = system: COLO 205
[3] = system: EKVX
[4] = system: HCC 2998
[5] = system: HT-29
[6] = system: IGROV-1
[7] = system: KM12
[8] = system: MCF7
[9] = system: MOLT-4
[10] = system: OVCAR-5
[11] = system: OVCAR-8
[12] = system: RXF 393
[13] = system: SF-295
[14] = system: SF-539
[15] = system: T47D
[16] = system: TK-10
[17] = system: MDA-MB-231
[18] = system: MDA-MB-435
[19] = system: UACC-62

CC1(C)CC(=O)c2c(nc(SSc3nc4c(c(-c5ccccc5)c3C#N)C(=O)CC(C)(C)C4)c(C#N)c2-c2ccccc2)C1
GI50 [1]: > 10 µM (inactive) | GI50 [2]: > 10 µM (inactive) | GI50 [3]: > 10 µM (inactive) | GI50 [4]: > 10 µM (inactive) | GI50 [5]: > 10 µM (inactive) | GI50 [6]: > 10 µM (inactive) | GI50 [7]: > 10 µM (inactive) | GI50 [8]: > 10 µM (inactive) | GI50 [9]: > 10 µM (inactive) | GI50 [10]: > 10 µM (inactive) | GI50 [11]: > 10 µM (inactive) | GI50 [12]: > 10 µM (inactive) | GI50 [13]: > 10 µM (inactive) | GI50 [14]: > 10 µM (inactive) | GI50 [15]: > 10 µM (inactive) | GI50 [16]: > 10 µM (inactive)

c1ccc(/C(=N/Nc2ccncn2)c2ccccn2)cc1
GI50 [1]: 17.8 µM (inactive) | GI50 [2]: 1.03 µM (active) | GI50 [3]: 4.34 µM (inactive) | GI50 [4]: > 100 µM (inactive) | GI50 [5]: 0.883 µM (active) | GI50 [6]: 17 µM (inactive) | GI50 [7]: 22 µM (inactive) | GI50 [8]: 8.51 µM (inactive) | GI50 [17]: 32.2 µM (inactive) | GI50 [18]: 48.6 µM (inactive) | GI50 [9]: 3.47 µM (inactive) | GI50 [10]: 34.5 µM (inactive) | GI50 [11]: 16.6 µM (inactive) | GI50 [12]: 34.3 µM (inactive) | GI50 [13]: 23.1 µM (inactive) | GI50 [14]: 32.2 µM (inactive) | GI50 [19]: 26.4 µM (inactive)

Cc1cc(S(=O)(=O)Nc2nc3ccccc3c(=O)n2N)c(S)cc1Cl
GI50 [1]: 21.3 µM (inactive) | GI50 [2]: > 100 µM (inactive) | GI50 [3]: 43.6 µM (inactive) | GI50 [4]: 49.3 µM (inactive) | GI50 [5]: 53 µM (inactive) | GI50 [6]: 43.8 µM (inactive) | GI50 [7]: 37.2 µM (inactive) | GI50 [8]: 71.1 µM (inactive) | GI50 [17]: 32.9 µM (inactive) | GI50 [18]: 32.7 µM (inactive) | GI50 [9]: 47.6 µM (inactive) | GI50 [10]: 55.5 µM (inactive) | GI50 [11]: 30.2 µM (inactive) | GI50 [13]: 28.3 µM (inactive) | GI50 [14]: 27.6 µM (inactive) | GI50 [16]: 48.1 µM (inactive) | GI50 [19]: 20.7 µM (inactive)

COc1ccc2cc(NC(=O)N/N=C\c3ccc(Cl)cc3)ccc2c1
GI50 [1]: 40 µM (inactive) | GI50 [2]: > 100 µM (inactive) | GI50 [3]: > 100 µM (inactive) | GI50 [4]: > 100 µM (inactive) | GI50 [5]: > 100 µM (inactive) | GI50 [6]: 88.7 µM (inactive) | GI50 [7]: > 100 µM (inactive) | GI50 [8]: > 100 µM (inactive) | GI50 [17]: 27.5 µM (inactive) | GI50 [18]: 69.8 µM (inactive) | GI50 [9]: > 100 µM (inactive) | GI50 [10]: > 100 µM (inactive) | GI50 [11]: 96.8 µM (inactive) | GI50 [13]: 59.6 µM (inactive) | GI50 [14]: 43.1 µM (inactive) | GI50 [16]: > 100 µM (inactive) | GI50 [19]: 40.3 µM (inactive)

COc1c(C)c(C/C=C(\C)CCCCO)c(OC)c2ccccc12
GI50 [1]: 38 µM (inactive) | GI50 [2]: 38.2 µM (inactive) | GI50 [3]: 61.5 µM (inactive) | GI50 [4]: 23.3 µM (inactive) | GI50 [5]: 20.4 µM (inactive) | GI50 [6]: 65.8 µM (inactive) | GI50 [7]: 23.9 µM (inactive) | GI50 [8]: 38.5 µM (inactive) | GI50 [17]: 40.6 µM (inactive) | GI50 [18]: 32.6 µM (inactive) | GI50 [9]: 21.2 µM (inactive) | GI50 [10]: 83.8 µM (inactive) | GI50 [11]: 33.1 µM (inactive) | GI50 [12]: 79.6 µM (inactive) | GI50 [13]: 41.4 µM (inactive) | GI50 [14]: 52.8 µM (inactive) | GI50 [16]: 63.8 µM (inactive) | GI50 [19]: 49.2 µM (inactive)

N#Cc1c(-c2ccccc2)c(C#N)c(=S)n(C2OC(CO)C(O)C(O)C2O)c1N (stereo not drawn)
GI50 [1]: > 100 µM (inactive) | GI50 [4]: > 100 µM (inactive) and 96.4 µM (inactive) | GI50 [5]: > 100 µM (inactive) | GI50 [7]: > 100 µM (inactive) | GI50 [17]: > 100 µM (inactive) | GI50 [10]: > 100 µM (inactive) and 85.1 µM (inactive) | GI50 [11]: > 100 µM (inactive) | GI50 [12]: > 100 µM (inactive) | GI50 [13]: > 100 µM (inactive) | GI50 [14]: > 100 µM (inactive) | GI50 [15]: 52.6 µM (inactive) and 68.5 µM (inactive) | GI50 [19]: > 100 µM (inactive)

O=C1NC(Nc2ccccc2)=N/C1=C\c1c(Cl)cccc1Cl
GI50 [1]: 15.1 µM (inactive) | GI50 [2]: 31.3 µM (inactive) | GI50 [3]: 20.6 µM (inactive) | GI50 [4]: 21.4 µM (inactive) | GI50 [5]: 30.6 µM (inactive) | GI50 [6]: 17.8 µM (inactive) | GI50 [7]: 29.5 µM (inactive) | GI50 [8]: 19.4 µM (inactive) | GI50 [18]: 32.4 µM (inactive) | GI50 [9]: 20.7 µM (inactive) | GI50 [10]: 29 µM (inactive) | GI50 [11]: 19.1 µM (inactive) | GI50 [12]: 17.8 µM (inactive) | GI50 [13]: 31.3 µM (inactive) | GI50 [14]: 22.1 µM (inactive) | GI50 [15]: 30.8 µM (inactive) | GI50 [16]: 18.9 µM (inactive) | GI50 [19]: 21.6 µM (inactive)

Cc1nc2c(o1)C(=O)c1ccccc1/C2=N/c1ccccn1
GI50 [1]: 25.6 µM (inactive) | GI50 [2]: 35.6 µM (inactive) | GI50 [3]: 17.7 µM (inactive) | GI50 [4]: 21.9 µM (inactive) | GI50 [5]: 18.8 µM (inactive) | GI50 [6]: 22.6 µM (inactive) | GI50 [7]: 21.7 µM (inactive) | GI50 [8]: 17.7 µM (inactive) | GI50 [17]: 15.6 µM (inactive) | GI50 [18]: 17.9 µM (inactive) | GI50 [9]: 17.7 µM (inactive) | GI50 [10]: 17.9 µM (inactive) | GI50 [11]: 15.4 µM (inactive) | GI50 [12]: > 100 µM (inactive) | GI50 [13]: > 100 µM (inactive) | GI50 [14]: 18.2 µM (inactive) | GI50 [16]: > 100 µM (inactive) | GI50 [19]: 20 µM (inactive)
